The target in this experiment is T1, Hhat (Homo sapiens, UniProt Q5VTY9).
T1 construct: Hhat-FLAG-His8 (C-terminal tags kept), stably expressed in HEK293a cells; DDM-solubilized membrane fraction P100(sol) enriched by Ni-NTA
As to the kind of experiment: microfluidic mobility shift assay, stopped. The format is biochemical.

The structures appear in SMILES notation.

The term IC50 denotes the concentration needed to halve the response being measured.

T1 sequence (Q5VTY9 whole entry): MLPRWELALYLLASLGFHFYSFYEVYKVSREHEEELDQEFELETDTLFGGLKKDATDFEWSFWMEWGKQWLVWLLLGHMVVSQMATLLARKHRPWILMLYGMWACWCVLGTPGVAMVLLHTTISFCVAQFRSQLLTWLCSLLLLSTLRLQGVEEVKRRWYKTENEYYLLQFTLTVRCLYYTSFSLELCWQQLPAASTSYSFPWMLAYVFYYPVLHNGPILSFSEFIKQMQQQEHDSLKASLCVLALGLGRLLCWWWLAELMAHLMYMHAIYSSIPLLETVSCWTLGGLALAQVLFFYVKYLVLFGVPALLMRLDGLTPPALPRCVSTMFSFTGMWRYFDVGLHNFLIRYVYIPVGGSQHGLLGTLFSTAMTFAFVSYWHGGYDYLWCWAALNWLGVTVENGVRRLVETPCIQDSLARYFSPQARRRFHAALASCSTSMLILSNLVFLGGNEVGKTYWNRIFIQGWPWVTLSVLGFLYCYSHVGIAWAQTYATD

For the compound `CCC(C)CNCC(=O)N1CCc2sccc2C1c1cccc(C)c1` (stereo not shown) [RUSKI-101], the IC50 came out at 8.32 ± 3.69 µM.

The values above are taken from article PMC5453399, “Microfluidic Mobility Shift Assay for Real-Time Analysis of Peptide N-Palmitoylation” (Slas Discovery, 2017).
